# Patent US20130196900A1, “ENHANCEMENT OF INNATE RESISTANCE TO INFECTION” (priority 2007, published 2013)
# “And” between values parts separate entries of the source, which are not always exact repeats. Equal entries are not always repeated. Where two headings read alike, the source gives them in different places.
# Columns and labels:
# Phase II C. burnetii [1] = assay type: in vivo
# TLR-1 to 10 = assay: TLR activation assay (THP1-Blue-CD14/SEAP); assay type: cell-based; settings: securinine 50 or 25 μM, 24 hours
# MonoMac-1 cells = assay: IL-8 assay in MonoMac-1 cells (ELISA); assay type: cell-based, human; settings: securinine 25 μM vs carrier/buffer control
# host macrophages = settings: 24 hours
# [2] = tested on: C. burnetii (Phase II Nine Mile strain); assay type: cell-based; settings: 96 hours
# p38 map kinase = assay: p38 MAP kinase Western blot in Monomac-1 cells; assay type: cell-based, human; settings: 50 μM securinine
# C. burnetii = settings: 24 hours
# [3] = concentrations as high as 10 mg/kg or greater i.p.; cited from earlier work
# Phase II C. burnetii [4] = assay type: cell-based; settings: 96 hours
# cathepsin D = assay type: cell-based, mouse
# [5] = tested on: C. burnetii (Phase II Nine Mile strain); assay type: cell-based; settings: 96 hours; remark: listed apart in the source
# peritoneal cells = assay: Analysis of peritoneal cells after i.p. injection (FACS); assay type: in vivo, Balb/c mice; settings: peritoneum, data not shown
molecule,measurement,setting,value
O=C1C=C2C=C[C@@H]3C[C@@]2(O1)[C@H]1CCCCN31 [securinine],C. burnetii burden (viable bacterial counts),Phase II C. burnetii [1]; 96 hr,significantly (P value <0.05) lower
same,spleen weights,Phase II C. burnetii [1]; 96 hr,significantly (P value <0.05) lower
same,"reduction in C. burnetii, PCR assay for bacterial DNA","Phase II C. burnetii [1]; in vivo, ip",10 fold
same,"reduction in C. burnetii, viability assay","Phase II C. burnetii [1]; in vivo, ip",10 fold
same,TLR-1 to 10 signaling (SEAP release),TLR-1 to 10,not detected
same,IL-8 secretion,MonoMac-1 cells,potent inducer of IL-8 secretion
same,direct killing of host cells,host macrophages,"Neither of the compounds, at concentrations that induced killing in vitro and in vivo, induced direct killing"
same,C. burnetii killing,[2],induced killing of C. burnetii
same,p38Map kinase activity (phospho-p38),p38 map kinase,induces p38Map kinase activity
same,direct killing of C. burnetii,C. burnetii,"Neither of the compounds, at concentrations that induced killing in vitro and in vivo, induced direct killing"
same,toxicity,[3],without any obvious toxicity
same,percent C. burnetii killing,Phase II C. burnetii [4],> 80%
same,cathepsin D expression in infected macrophages,cathepsin D,induced cathepsin D expression
same,C. burnetii killing,[5],induced killing of C. burnetii
Pam3CGDPKHPKSF [FSL-1],neutrophil and macrophage activation: CD11b and Ly6C expression,peritoneal cells,increased
same,"bacterial burden by PCR, lower than buffer alone",Phase II C. burnetii [1]; in vivo,> 10 fold
same,bacterial counts by PCR,Phase II C. burnetii [1]; in vivo,reduced bacterial counts
same,"efficiency in inducing enhanced C. burnetii clearance, share of animals",Phase II C. burnetii [1]; in vivo,61% and 100%
same,mice showing a reduction of C. burnetii,Phase II C. burnetii [1]; in vivo,11 mice
same,mice with lower spleen weight and bacterial burden,Phase II C. burnetii [1]; in vivo,5 out of 5
same,spleen weight,Phase II C. burnetii [1]; in vivo,significantly lower
same,splenomegaly (spleen weight),Phase II C. burnetii [1]; in vivo,reduced the splenomegaly
same,total C. burnetii DNA from spleen and liver,Phase II C. burnetii [1]; in vivo,lower
same,viable bacterial counts in the spleen (bacLight FACS assay),Phase II C. burnetii [1]; in vivo,enhanced clearance of C. burnetii
same,spleen C. burnetii numbers (PCR quantification of bacterial DNA),"Phase II C. burnetii [1]; in vivo, ip",reduced
same,direct killing of host cells,host macrophages,"Neither of the compounds, at concentrations that induced killing in vitro and in vivo, induced direct killing"
same,C. burnetii content of infected cells,[2],less C. burnetii
same,direct killing of C. burnetii,C. burnetii,"Neither of the compounds, at concentrations that induced killing in vitro and in vivo, induced direct killing"
lipopolysaccharide [LPS],neutrophil and macrophage activation: CD11b and Ly6C expression,peritoneal cells,increased
same,benefit on C. burnetii infection in vivo,Phase II C. burnetii [1]; in vivo,No benefit
same,spleen C. burnetii numbers (PCR quantification of bacterial DNA),"Phase II C. burnetii [1]; in vivo, ip",did not have an effect
same,C. burnetii content of infected cells,[2],less C. burnetii
